Reference: patent US11434221B2, “Pyrazine-4-carbamate or -urea derivatives as herbicides” (Syngenta Participations AG, priority 2017, dated 2022)

Test system: Alopecurus myosuroides (ALOMY)
Test: Pre-emergence herbicidal activity, glasshouse pot test
Format: in vivo
Design: key: 5=total damage to plant; 0=no damage to plant
Details: Rate 1000 g/ha; sprayed one day after sowing; evaluated after 13 days
Procedure: (§1) Seeds of a variety of test species were sown in standard soil in pots: Triticum aestivium (TRZAW), Avena fatua (AVEFA), Alopecurus myosuroides (ALOMY), Echinochloa crus-galli (ECHCG), Lolium perenne (LOLPE), and Setaria faberi (SETFA). After cultivation for one day (pre-emergence) under controlled conditions in a glasshouse (at 24/16° C., day/night; 14 hours light; 65% humidity), the plants were sprayed with an aqueous spray solution derived from the formulation of the technical active ingredient in acetone/water (50:50) solution containing 0.5% Tween 20 (polyoxyethelyene sorbitan monolaurate, CAS RN 9005-64-5). The test plants were then grown in a glasshouse under controlled conditions (at 24/16° C., day/night; 14 hours light; 65% humidity) and watered twice daily. After 13 days, the test was evaluated (5=total damage to plant; 0=no damage to plant).

SMILES | Control of weed species after pre-emergence application, ALOMY (damage score 0-5)
CC(C)(C)OC(=O)N(C(=O)OC(C)(C)C)c1ncc(-c2cncnc2)nc1C(F)(F)F [Compound H1] | 0
Cc1nc(-c2cncc(F)c2)cnc1N(C(=O)OC(C)(C)C)C(=O)OC(C)(C)C [Compound H2, 2-bis(tert-butoxycarbonyl)amino-3-methyl-5-(5-fluoropyrid-3-yl)pyrazine] | 0
CC(C)(C)OC(=O)Nc1ncc(-c2cncc(F)c2)nc1C(F)(F)F [Compound H4] | 0
CC(C)(C)OC(=O)N(C(=O)OC(C)(C)C)c1ncc(-c2cncc(F)c2)nc1C(F)(F)F [Compound H5] | 0

Test system: Avena fatua (AVEFA)
Test: as above
Format: in vivo
Design: key: 5=total damage to plant; 0=no damage to plant
Details: Rate 1000 g/ha; sprayed one day after sowing; evaluated after 13 days
Procedure: as §1

SMILES | Control of weed species after pre-emergence application, AVEFA (damage score 0-5)
CC(C)(C)OC(=O)N(C(=O)OC(C)(C)C)c1ncc(-c2cncnc2)nc1C(F)(F)F [Compound H1] | 2
Cc1nc(-c2cncc(F)c2)cnc1N(C(=O)OC(C)(C)C)C(=O)OC(C)(C)C [Compound H2, 2-bis(tert-butoxycarbonyl)amino-3-methyl-5-(5-fluoropyrid-3-yl)pyrazine] | 2
CC(C)(C)OC(=O)Nc1ncc(-c2cncc(F)c2)nc1C(F)(F)F [Compound H4] | 3
CC(C)(C)OC(=O)N(C(=O)OC(C)(C)C)c1ncc(-c2cncc(F)c2)nc1C(F)(F)F [Compound H5] | 2

Test system: Echinochloa crus-galli (ECHCG)
Test: as above
Format: in vivo
Design: key: 5=total damage to plant; 0=no damage to plant
Details: Rate 1000 g/ha; sprayed one day after sowing; evaluated after 13 days
Procedure: as §1

SMILES | Control of weed species after pre-emergence application, ECHCG (damage score 0-5)
CC(C)(C)OC(=O)N(C(=O)OC(C)(C)C)c1ncc(-c2cncnc2)nc1C(F)(F)F [Compound H1] | 4
Cc1nc(-c2cncc(F)c2)cnc1N(C(=O)OC(C)(C)C)C(=O)OC(C)(C)C [Compound H2, 2-bis(tert-butoxycarbonyl)amino-3-methyl-5-(5-fluoropyrid-3-yl)pyrazine] | 4
CC(C)(C)OC(=O)Nc1ncc(-c2cncc(F)c2)nc1C(F)(F)F [Compound H4] | 4
CC(C)(C)OC(=O)N(C(=O)OC(C)(C)C)c1ncc(-c2cncc(F)c2)nc1C(F)(F)F [Compound H5] | 5

Test system: Lolium perenne (LOLPE)
Test: as above
Format: in vivo
Design: key: 5=total damage to plant; 0=no damage to plant
Details: Rate 1000 g/ha; sprayed one day after sowing; evaluated after 13 days
Procedure: as §1

SMILES | Control of weed species after pre-emergence application, LOLPE (damage score 0-5)
CC(C)(C)OC(=O)N(C(=O)OC(C)(C)C)c1ncc(-c2cncnc2)nc1C(F)(F)F [Compound H1] | 1
Cc1nc(-c2cncc(F)c2)cnc1N(C(=O)OC(C)(C)C)C(=O)OC(C)(C)C [Compound H2, 2-bis(tert-butoxycarbonyl)amino-3-methyl-5-(5-fluoropyrid-3-yl)pyrazine] | 2
CC(C)(C)OC(=O)Nc1ncc(-c2cncc(F)c2)nc1C(F)(F)F [Compound H4] | 1
CC(C)(C)OC(=O)N(C(=O)OC(C)(C)C)c1ncc(-c2cncc(F)c2)nc1C(F)(F)F [Compound H5] | 1

Test system: Setaria faberi (SETFA)
Test: as above
Format: in vivo
Design: key: 5=total damage to plant; 0=no damage to plant
Details: Rate 1000 g/ha; sprayed one day after sowing; evaluated after 13 days
Procedure: as §1

SMILES | Control of weed species after pre-emergence application, SETFA (damage score 0-5)
CC(C)(C)OC(=O)N(C(=O)OC(C)(C)C)c1ncc(-c2cncnc2)nc1C(F)(F)F [Compound H1] | 4
Cc1nc(-c2cncc(F)c2)cnc1N(C(=O)OC(C)(C)C)C(=O)OC(C)(C)C [Compound H2, 2-bis(tert-butoxycarbonyl)amino-3-methyl-5-(5-fluoropyrid-3-yl)pyrazine] | 5
CC(C)(C)OC(=O)Nc1ncc(-c2cncc(F)c2)nc1C(F)(F)F [Compound H4] | 5
CC(C)(C)OC(=O)N(C(=O)OC(C)(C)C)c1ncc(-c2cncc(F)c2)nc1C(F)(F)F [Compound H5] | 5

Test system: Triticum aestivium (TRZAW)
Test: as above
Format: in vivo
Design: key: 5=total damage to plant; 0=no damage to plant
Details: Rate 1000 g/ha; sprayed one day after sowing; evaluated after 13 days
Procedure: as §1

SMILES | Control of weed species after pre-emergence application, TRAZW (damage score 0-5)
CC(C)(C)OC(=O)N(C(=O)OC(C)(C)C)c1ncc(-c2cncnc2)nc1C(F)(F)F [Compound H1] | 0
Cc1nc(-c2cncc(F)c2)cnc1N(C(=O)OC(C)(C)C)C(=O)OC(C)(C)C [Compound H2, 2-bis(tert-butoxycarbonyl)amino-3-methyl-5-(5-fluoropyrid-3-yl)pyrazine] | 0
CC(C)(C)OC(=O)Nc1ncc(-c2cncc(F)c2)nc1C(F)(F)F [Compound H4] | 0
CC(C)(C)OC(=O)N(C(=O)OC(C)(C)C)c1ncc(-c2cncc(F)c2)nc1C(F)(F)F [Compound H5] | 0

Test system: Alopecurus myosuroides (ALOMY)
Test: Post-emergence herbicidal activity, glasshouse pot test
Format: in vivo
Design: key: 5=total damage to plant; 0=no damage to plant
Details: Rate 1000 g/ha; sprayed after 8 days cultivation; evaluated after 13 days
Procedure: (§2) Seeds of a variety of test species were sown in standard soil in pots: Triticum aestivium (TRZAW), Avena fatua (AVEFA), Alopecurus myosuroides (ALOMY), Echinochloa crus-galli (ECHCG), Lolium perenne (LOLPE), and Setaria faberi (SETFA). After 8 days cultivation (post-emergence) under controlled conditions in a glasshouse (at 24/16° C., day/night; 14 hours light; 65% humidity), the plants were sprayed with an aqueous spray solution derived from the formulation of the technical active ingredient in acetone/water (50:50) solution containing 0.5% Tween 20 (polyoxyethelyene sorbitan monolaurate, CAS RN 9005-64-5). The test plants were then grown in a glasshouse under controlled conditions (at 24/16° C., day/night; 14 hours light; 65% humidity) and watered twice daily. After 13 days, the test was evaluated (5=total damage to plant; 0=no damage to plant).

SMILES | Control of weed species after post-emergence application, ALOMY (damage score 0-5)
CC(C)(C)OC(=O)N(C(=O)OC(C)(C)C)c1ncc(-c2cncnc2)nc1C(F)(F)F [Compound H1] | 0
Cc1nc(-c2cncc(F)c2)cnc1N(C(=O)OC(C)(C)C)C(=O)OC(C)(C)C [Compound H2, 2-bis(tert-butoxycarbonyl)amino-3-methyl-5-(5-fluoropyrid-3-yl)pyrazine] | 0
CC(C)(C)OC(=O)Nc1ncc(-c2cncc(F)c2)nc1C(F)(F)F [Compound H4] | 0
CC(C)(C)OC(=O)N(C(=O)OC(C)(C)C)c1ncc(-c2cncc(F)c2)nc1C(F)(F)F [Compound H5] | 0

Test system: Avena fatua (AVEFA)
Test: as above
Format: in vivo
Design: key: 5=total damage to plant; 0=no damage to plant
Details: Rate 1000 g/ha; sprayed after 8 days cultivation; evaluated after 13 days
Procedure: as §2

SMILES | Control of weed species after post-emergence application, AVEFA (damage score 0-5)
CC(C)(C)OC(=O)N(C(=O)OC(C)(C)C)c1ncc(-c2cncnc2)nc1C(F)(F)F [Compound H1] | 4
Cc1nc(-c2cncc(F)c2)cnc1N(C(=O)OC(C)(C)C)C(=O)OC(C)(C)C [Compound H2, 2-bis(tert-butoxycarbonyl)amino-3-methyl-5-(5-fluoropyrid-3-yl)pyrazine] | 3
CC(C)(C)OC(=O)Nc1ncc(-c2cncc(F)c2)nc1C(F)(F)F [Compound H4] | 3
CC(C)(C)OC(=O)N(C(=O)OC(C)(C)C)c1ncc(-c2cncc(F)c2)nc1C(F)(F)F [Compound H5] | 3

Test system: Echinochloa crus-galli (ECHCG)
Test: as above
Format: in vivo
Design: key: 5=total damage to plant; 0=no damage to plant
Details: Rate 1000 g/ha; sprayed after 8 days cultivation; evaluated after 13 days
Procedure: as §2

SMILES | Control of weed species after post-emergence application, ECHCG (damage score 0-5)
CC(C)(C)OC(=O)N(C(=O)OC(C)(C)C)c1ncc(-c2cncnc2)nc1C(F)(F)F [Compound H1] | 5
Cc1nc(-c2cncc(F)c2)cnc1N(C(=O)OC(C)(C)C)C(=O)OC(C)(C)C [Compound H2, 2-bis(tert-butoxycarbonyl)amino-3-methyl-5-(5-fluoropyrid-3-yl)pyrazine] | 5
CC(C)(C)OC(=O)Nc1ncc(-c2cncc(F)c2)nc1C(F)(F)F [Compound H4] | 5
CC(C)(C)OC(=O)N(C(=O)OC(C)(C)C)c1ncc(-c2cncc(F)c2)nc1C(F)(F)F [Compound H5] | 5

Test system: Lolium perenne (LOLPE)
Test: as above
Format: in vivo
Design: key: 5=total damage to plant; 0=no damage to plant
Details: Rate 1000 g/ha; sprayed after 8 days cultivation; evaluated after 13 days
Procedure: as §2

SMILES | Control of weed species after post-emergence application, LOLPE (damage score 0-5)
CC(C)(C)OC(=O)N(C(=O)OC(C)(C)C)c1ncc(-c2cncnc2)nc1C(F)(F)F [Compound H1] | 3
Cc1nc(-c2cncc(F)c2)cnc1N(C(=O)OC(C)(C)C)C(=O)OC(C)(C)C [Compound H2, 2-bis(tert-butoxycarbonyl)amino-3-methyl-5-(5-fluoropyrid-3-yl)pyrazine] | 2
CC(C)(C)OC(=O)Nc1ncc(-c2cncc(F)c2)nc1C(F)(F)F [Compound H4] | 2
CC(C)(C)OC(=O)N(C(=O)OC(C)(C)C)c1ncc(-c2cncc(F)c2)nc1C(F)(F)F [Compound H5] | 2

Test system: Setaria faberi (SETFA)
Test: as above
Format: in vivo
Design: key: 5=total damage to plant; 0=no damage to plant
Details: Rate 1000 g/ha; sprayed after 8 days cultivation; evaluated after 13 days
Procedure: as §2

SMILES | Control of weed species after post-emergence application, SETFA (damage score 0-5)
CC(C)(C)OC(=O)N(C(=O)OC(C)(C)C)c1ncc(-c2cncnc2)nc1C(F)(F)F [Compound H1] | 5
Cc1nc(-c2cncc(F)c2)cnc1N(C(=O)OC(C)(C)C)C(=O)OC(C)(C)C [Compound H2, 2-bis(tert-butoxycarbonyl)amino-3-methyl-5-(5-fluoropyrid-3-yl)pyrazine] | 5
CC(C)(C)OC(=O)Nc1ncc(-c2cncc(F)c2)nc1C(F)(F)F [Compound H4] | 5
CC(C)(C)OC(=O)N(C(=O)OC(C)(C)C)c1ncc(-c2cncc(F)c2)nc1C(F)(F)F [Compound H5] | 5

Test system: Triticum aestivium (TRZAW)
Test: as above
Format: in vivo
Design: key: 5=total damage to plant; 0=no damage to plant
Details: Rate 1000 g/ha; sprayed after 8 days cultivation; evaluated after 13 days
Procedure: as §2

SMILES | Control of weed species after post-emergence application, TRAZW (damage score 0-5)
CC(C)(C)OC(=O)N(C(=O)OC(C)(C)C)c1ncc(-c2cncnc2)nc1C(F)(F)F [Compound H1] | 0
Cc1nc(-c2cncc(F)c2)cnc1N(C(=O)OC(C)(C)C)C(=O)OC(C)(C)C [Compound H2, 2-bis(tert-butoxycarbonyl)amino-3-methyl-5-(5-fluoropyrid-3-yl)pyrazine] | 0
CC(C)(C)OC(=O)Nc1ncc(-c2cncc(F)c2)nc1C(F)(F)F [Compound H4] | 1
CC(C)(C)OC(=O)N(C(=O)OC(C)(C)C)c1ncc(-c2cncc(F)c2)nc1C(F)(F)F [Compound H5] | 1
